Assay results reported in US6884776B1, “Antimicrobial peptides derived from ubiquicidine” (priority 1997, dated 2005).
Where no end group is shown, it is not given here.

How the values were obtained:
[1] = test system: Staphylococcus aureus; assay: growth-killing curve determination, 60 minutes at 37° C., CFU; assay type: cell-based
Experimental: (§1) Different techniques were used to test for the antimicrobial activity of ubiquicidine and peptides derived therefrom.
(§2) In the control incubations the bacteria multiplied a number of times (not shown).
(§3) Peptides were prepared using an Abimed AMS multiple peptide synthesizer and a fixed phase (tentagel AC, a polymer of polyethylene glycol spacer linked to a polystyrene matrix) (de Koster et al. (1995) J. Immunol. Methods 187:179-188). After completion of the synthesis the peptide was released from the fixed phase using a trifluoroacetic acid water(19:1) mixture and the peptides were subsequently precipitated with an ether pentane(1:1) mixture at […]. After centrifugation the obtained pep-tides were dried at 40° C. for 15 minutes. The peptides were subsequently dissolved in 10% acetic acid and concentrated by means of vacuum centrifugation. The purity of the peptides was determined using HPLC. The antimicrobial activity of these peptide fragments was determined as described in Example 1 under 2.3.

[2] = test system: Klebsiella pneumoniae; assay: as above; assay type: cell-based
Experimental: as §1, §2, §3

[3] = test system: micro-organisms; assay: growth-killing test / in vitro antimicrobial action (IC 99%); assay type: cell-based
Description: Peptide fragments derived from ubiquicidine comprise a preferably continuous series of at least 3, preferably at least 8 amino acids from the amino acid sequence of ubiquicidine as shown in FIG. 1. For an average skilled person it is simple to ascertain whether a peptide fragment with a series of preferably continuous amino acids chosen from the amino acid sequence of ubiquicidine does actually have antimicrobial activity and thus meets the requirements of the invention. A simple standard test for determining antimicrobial activity is for instance the universally known growth-killing test, i.e. determining of the concentration of an antimicrobial agent which kills 99% of the micro-organisms (IC 99%). Designated by “peptide (fragments)” in this application are therefore all amino acid chains which are smaller than the ubiquicidine itself, but the amino acid sequence of which is to be found, preferably continuously, in the ubiquicidine. The length of such peptide (fragments) can vary from 3 to 58 amino acids, wherein possible extra amino acids added as modification are not included.
as §1

[4] = set-up: species or system mice; conditions: mouse, in vivo
Experimental: Reference is made to FIG. 11 for a schematic view of the experimental infection and treatment of the mice. In summary, mice-were infected intramuscularly in the right thigh muscle with about 10^6 bacteria and after 5 minutes injected intraperitoneally with about 25 μg (labelled) peptide. At different points in time after injection of the peptide the animals were killed and the right thigh muscle was removed, homogenized, and finally the number of bacteria in the homogenate was determined using microbiological plate techniques, or accumulation of the labelled peptide was determined by means of a γ-camera. This test involved animals which were normal and immunocompromised (injection with cyclophosphamide, “total body” radiation).
(§4) Mice were infected in the right thigh muscle with Klebsiella pneumoniae and 25 μg ^99mTc-labelled ubiquicidine (1-18) or ubiquicidine (18-35) was subsequently injected intraperitoneally. At different points in time after injection of the peptide the amount of activity in the right (test) and left (control) thigh muscle of the mouse was measured using a γ-camera. The results are shown in FIG. 12 as a ratio of the values in the right thigh muscle and the left thigh muscle, i.e. “target to non-target ratio”. For the purpose of comparison the results for human defensin and IgG are also shown. The target to non-target ratios for infections and sterile inflammations were also compared (FIG. 13).

[5] = localization of 99mTc-labelled peptides with γ-camera in mice infected with Staphylococcus aureus or with sterile inflammations; assay type: in vivo; conditions: target to non-target ratios, FIG. 13
Experimental: Mice were infected intramuscularly with about 10^6 Staphylococcus aureus bacteria (ATCC 25923) and subsequently injected intraperitoneally with 25 μg ^99mTc-peptide. Mice were also injected intramuscularly with about 1×10^8 heat-killed (1 hour, 100° C.)S. aureus, 1 μg endotoxin or 100 ng phorbol myristate acetate (PMA) in order to cause sterile inflammations. At different points in time after injection of the peptide the radioactivity was measured in the circulation (heart), determined organs (liver, kidney, bladder and spleen) and in both thigh muscles using a γ-camera.
as §4

[6] = in vivo; cited from earlier work

For “ubiquicidine (29-41): synthetic peptide fragment of ubiquicidine, amino acids 29-41, sequence in FIG. 1 (TGRAKRRMQYNRR; Small ribosomal subunit protein eS30; UniProt P62861 103-115, looked up, fragment)”, the “antimicrobial activity of peptide fragments” value [1] was “demonstrated antimicrobial activity”, the “antimicrobial activity of peptide fragments” value [2] was “demonstrated antimicrobial activity” and the “IC 99% (concentration which kills 99% of the micro-organisms)” value [3] was “around 1 μM”.
For “^99Tc-ubiquicidine (1-18): ubiquicidine (1-18) labelled with technetium 99m (KVHGSLARAGKVRGQTPK; also: labelled with 99mTc, site not given here; UniProt P62861 75-92, looked up, fragment)”, the “time to maximum accumulation compared with IgG” value [4] was “much sooner than ^99Tc-IgG”.
In the case of “99mTc-labelled ubiquicidine 18-35: MAG3-derived ubiquicidine (18-35) labelled with the emitter 99mTc (hybrid molecule) (KVAKQEKKKKKTGRAKRR; also: MAG3 chelator conjugated, site not given here, 99mTc label; UniProt P62861 92-109, looked up, fragment)”, the “time to maximum accumulation compared with IgG” value [4] is reported as “much sooner than ^99Tc-IgG” and the “accumulation in infection versus sterile inflammations” value [5] is reported as “in a nidus but not in inflammations”.
For `[67Ga]` [gallium 67], the “time needed for accumulation” value [6] is given as “at least 24 hours”.
With “KVAKQEKKKKKTGRAKRR [ubiquicidine (18-35)]” the “accumulation in the infected thigh muscle” value [4] was “accumulate rapidly”.
For “KVHGSLARAGKVRGQTPK [ubiquicidine (1-18)]”, the “accumulation in the infected thigh muscle” value [4] was “accumulate rapidly”.
